Source: patent US20170291905A1, “ARGININE […] INHIBITORS AND USES THEREOF” (Epizyme, Inc., priority 2014, published 2017)
Counter-ions that a name gives are not always drawn.

Target: T1, PRMT1 (Homo sapiens, UniProt Q99873)
T1 construct: host or cells: RKO cells
Assay: RKO methylation assay, In Cell Western (ICW) for mono-methyl arginine and DNA content
Type: cell-based
Details: RKO cells, 72 hours, mono-methyl arginine signal normalised to DRAQ5, percent activation
Description: RKO Methylation Assay RKO adherent cells were purchased from ATCC (American Type Culture Collection), Manassas, Va., USA. DMEM/Glutamax medium, penicillin-streptomycin, heat inactivated fetal bovine serum, 0.05% trypsin and D-PBS were purchased from Life Technologies, Grand Island, N.Y., USA. Odyssey blocking buffer, 800CW goat anti-rabbit IgG (H+L) antibody, and Licor Odyssey infrared scanner were purchased from Licor Biosciences, Lincoln, Nebr., USA. Mono-methyl arginine antibody was purchased from Cell Signaling Technology, Danvers, Mass., USA. Methanol was purchased from VWR, Franklin, Mass., USA. 10% Tween 20 was purchased from KPL, Inc., Gaithersburg, Md., USA. DRAQ5 was purchased from Biostatus Limited, Leicestershire, UK. RKO adherent cells were maintained in growth medium (DMEM/Glutamax medium supplemented with 10% v/v heat inactivated fetal bovine serum and 100 units/mL penicillin-streptomycin) and cultured at 37° C. under 5% CO2. Cell Treatment, in Cell Western (ICW) for Detection of Mono-Methyl Arginine and DNA Content. RKO cells were seeded in assay medium at a concentration of 20,000 cells per mL to a poly-D-lysine coated 384 well culture plate (BD Biosciences 356697) with 50 μL per well. Compound (100 nL) from a 96-well source plate was added directly to 384 well cell plate. Plates were incubated at 37° C., 5% CO2 for 72 hours. After three days of incubation, plates were brought to room temperature outside of the incubator for ten minutes and blotted on paper towels to remove cell media. 50 μL of ice cold 100% methanol was added directly to each well and incubated for 30 min at room temperature. After 30 min, plates were transferred to a Biotek EL406 plate washer and washed 2 times with 100 μL per well of wash buffer (1×PBS). Next 60 μL per well of Odyssey blocking buffer (Odyssey Buffer with 0.1% Tween 20 (v/v)) were added to each plate and incubated 1 hour at room temperature. Blocking buffer was removed and 20 μL per well of primary antibody was added (mono-methyl arginine diluted 1:200 in Odyssey buffer with 0.1% Tween 20 (v/v)) and plates were incubated overnight (16 hours) at 4° C. Plates were washed 5 times with 100 μL per well of wash buffer. Next 20 μL per well of secondary antibody was added (1:200 800CW goat anti-rabbit IgG (H+L) antibody, 1:1000 DRAQ5 (Biostatus limited) in Odyssey buffer with 0.1% Tween 20 (v/v)) and incubated for 1 hour at room temperature. The plates were washed 5 times with 100 μL per well wash buffer then 2 times with 100 μL per well of water. Plates were allowed to dry at room temperature then imaged on the Licor Odyssey machine which measures integrated intensity at 700 nm and 800 nm wavelengths. Both 700 and 800 channels were scanned. […] Each plate included fourteen control wells of DMSO only treatment (minimum activation) as well as fourteen control wells for maximum activation treated with 20 μM of a reference compound. The average of the ratio values for each control type was calculated and used to determine the percent activation for each test well in the plate. Reference compound was serially diluted three-fold in DMSO for a total of nine test concentrations, beginning at 20 μM. Percent activation was determined and EC30 curves were generated using triplicate wells per concentration of compound.

T1 sequence (Q99873 whole entry): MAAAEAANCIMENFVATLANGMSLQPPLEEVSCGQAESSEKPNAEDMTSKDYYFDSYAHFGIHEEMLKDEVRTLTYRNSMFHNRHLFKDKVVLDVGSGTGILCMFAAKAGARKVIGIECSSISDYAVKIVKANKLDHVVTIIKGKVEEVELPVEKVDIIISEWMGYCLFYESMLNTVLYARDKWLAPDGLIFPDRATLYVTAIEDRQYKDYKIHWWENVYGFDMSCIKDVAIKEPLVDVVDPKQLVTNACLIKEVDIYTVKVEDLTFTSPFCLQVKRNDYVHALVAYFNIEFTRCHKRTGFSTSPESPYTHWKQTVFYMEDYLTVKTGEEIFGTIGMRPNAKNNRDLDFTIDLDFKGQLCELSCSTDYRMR

`CC[C@]12CC[C@](CC)(C[C@@H](c3n[nH]cc3CN(C)CCNC)C1)O2` [compound 38, N1-((3-((1R,3s,5S)-1,5-diethyl-8-oxabicyclo[3.2.1]octan-3-yl)-1H-pyrazol-4-yl)methyl)-N1,N2-dimethylethane-1,2-diamine] was tested, and the “PRMT1 RGG ICW EC30” value was >5.0 µM.
`CNCCN(C)Cc1c(Cl)ncn1[C@H]1CC[C@]2(CC1)CC(C)(C)CO2` [compound 97] was tested, and the “PRMT1 RGG ICW EC30” value was >10 µM.
`CNCCN(C)Cc1c(C)noc1[C@H]1CC[C@]2(CC1)CC(C)(C)CO2` [compound 114] was tested, and the “PRMT1 RGG ICW EC30” value was >10 µM.

`CNCCN(C)Cc1ccnn1[C@H]1CC[C@]2(CC1)CC(C)(C)CO2` [compound 50, N1-((1-((5r,8r)-3,3-dimethyl-1-oxaspiro[4.5]decan-8-yl)-1H-pyrazol-5-yl)methyl)-N1,N2-dimethylethane-1,2-diamine] and `CNCCN(C)Cc1cncn1[C@H]1CC[C@@]2(CC1)CC(C)(C)CO2` [compound 76] are within 1.5-fold of each other in “PRMT1 RGG ICW EC30” value: 0.3212 µM for the first, 0.3894 µM for the second.

Going from `Cc1[nH]nc([C@H]2CC[C@]3(CC2)CC(C)(C)CO3)c1CN(C)CCN` [compound 52, N1-((3-((5r,8r)-3,3-dimethyl-1-oxaspiro[4.5]decan-8-yl)-5-methyl-1H-pyrazol-4-yl)methyl)-N1-methylethane-1,2-diamine] to `Cc1[nH]nc(C2CCC3(CC2)CC(C)(C)CO3)c1CN(C)CCN` (stereo not shown) [compound 59], the “PRMT1 RGG ICW EC30” value falls from 0.3736 µM to 0.1931 µM (1.9-fold).

Compared with `CNCCN(C)Cc1c(C)[nH]nc1[C@H]1CC[C@@]2(CC1)CC(C)(C)CO2` [compound 57], `CNCCN(C)Cc1c(C)[nH]nc1[C@H]1CC[C@]2(CC1)CC(C)(C)CO2` [compound 58] is 2.1-fold higher in “PRMT1 RGG ICW EC30” value: 0.04032 µM for the first, 0.08334 µM for the second.

Going from `CCOCC1(COCC)CC=C(c2n[nH]cc2CN(C)CCNC)CC1` [compound 60] to `CCOCC1(COCC)CCC(c2nn(C)cc2CN(C)CCNC)CC1` [compound 122], the “PRMT1 RGG ICW EC30” value falls from 0.04467 µM to 0.02211 µM (2-fold).

Going from `CNCCN(C)Cc1scnc1[C@H]1CC[C@@]2(CC1)CC(C)(C)CO2` [compound 62] to `CNCCN(C)Cc1scnc1[C@H]1CC[C@]2(CC1)CC(C)(C)CO2` [compound 84], the “PRMT1 RGG ICW EC30” value rises from 0.00696 µM to 0.05469 µM (7.9-fold).

First: CNCCN(C)Cc1nn(C)nc1[C@H]1CC[C@@]2(CC1)CC(C)(C)CO2 [compound 64]
Second: CNCCN(C)Cc1nn(C)nc1C1CCC2(CC1)CC(C)(C)CO2 (stereo not shown) [compound 86]
The “PRMT1 RGG ICW EC30” value of the first is 3.7-fold lower: 0.119 µM for the first, 0.4436 µM for the second.

Compared with `CNCCN(C)Cc1nn[nH]c1[C@H]1CC[C@@]2(CC1)CC(C)(C)CO2` [compound 67], `CNCCN(C)Cc1nn[nH]c1[C@H]1CC[C@]2(CC1)CC(C)(C)CO2` [compound 89] is 22-fold higher in “PRMT1 RGG ICW EC30” value: 0.0339 µM for the first, 0.7604 µM for the second.

First: CNCCN(C)Cc1nc(C)sc1[C@H]1CC[C@@]2(CC1)CC(C)(C)CO2 [compound 77]
Second: CNCCN(C)Cc1nc(C)sc1[C@H]1CC[C@]2(CC1)CC(C)(C)CO2 [compound 99]
The “PRMT1 RGG ICW EC30” value of the first is 1.8-fold lower: 0.05311 µM for the first, 0.09553 µM for the second.

Compared with `CNCCN(C)Cc1sc(C)nc1[C@H]1CC[C@@]2(CC1)CC(C)(C)CO2` [compound 78], `CNCCN(C)Cc1sc(C)nc1[C@H]1CC[C@]2(CC1)CC(C)(C)CO2` [compound 100] is 2.6-fold higher in “PRMT1 RGG ICW EC30” value: 0.02959 µM for the first, 0.07586 µM for the second.

First: CN(CCN)Cc1nn(C)cc1[C@H]1CC[C@@]2(CC1)CC(C)(C)CO2 [compound 80]
Second: CN(CCN)Cc1nn(C)cc1[C@H]1CC[C@]2(CC1)CC(C)(C)CO2 [compound 102]
The “PRMT1 RGG ICW EC30” value of the first is 7.3-fold lower: 0.06159 µM for the first, 0.4467 µM for the second.

First: CNCCN(C)Cc1nn(C)cc1[C@H]1CC[C@@]2(CC1)CC(C)(C)CO2 [compound 81]
Second: CNCCN(C)Cc1nn(C)cc1[C@H]1CC[C@]2(CC1)CC(C)(C)CO2 [compound 103]
The “PRMT1 RGG ICW EC30” value of the first is 6.2-fold lower: 0.09594 µM for the first, 0.5974 µM for the second.

Compared with `CNCCN(C)Cc1ncsc1[C@H]1CC[C@@]2(CC1)CC(C)(C)CO2` [compound 83], `CNCCN(C)Cc1n[nH]cc1[C@H]1CC[C@@]2(CC1)CC(C)(C)CO2` [compound 115] is 2.8-fold lower in “PRMT1 RGG ICW EC30” value: 0.05796 µM for the first, 0.02034 µM for the second.

First: CN(CCN)Cc1c[nH]nc1[C@H]1CC[C@@]2(CC1)CC(C)(C)CO2 [compound 105]
Second: CN(CCN)Cc1c[nH]nc1[C@H]1CC[C@]2(CC1)CC(C)(C)CO2 [compound 106]
The “PRMT1 RGG ICW EC30” value of the first is 3.7-fold lower: 0.01212 µM for the first, 0.04527 µM for the second.

First: CNCCN(C)Cc1n[nH]cc1[C@H]1CC[C@]2(CC1)CC(C)(C)CO2 [compound 116]
Second: CNCCN(C)Cc1nocc1[C@H]1CC[C@@]2(CC1)CC(C)(C)CO2 [compound 117]
The “PRMT1 RGG ICW EC30” value of the first is 5.6-fold lower: 0.1545 µM for the first, 0.8632 µM for the second.

Compared with `CCOCC1(COCC)CCC(c2n[nH]cc2CN(C)CCN(C)C)CC1` [compound 121], `CCOCC1(COCC)CCC(c2n[nH]cc2CN(C)CCN)CC1` [compound 123] is 6.6-fold lower in “PRMT1 RGG ICW EC30” value: 0.1175 µM for the first, 0.0178 µM for the second.

Compared with `CCOCC1(COCC)CCC(c2nn(C)cc2CN(C)CCN)CC1` [compound 124], `CNCCN(C)Cc1c[nH]nc1[C@H]1CC[C@@]2(CC1)COC(C)(C)C2` [compound 126, N1-((3-((5r,8r)-3,3-dimethyl-2-oxaspiro[4.5]decan-8-yl)-1H-pyrazol-4-yl)methyl)-N1,N2-dimethylethane-1,2-diamine] is 3.7-fold lower in “PRMT1 RGG ICW EC30” value: 0.05587 µM for the first, 0.01526 µM for the second.

Going from `CNCCN(C)Cc1c[nH]nc1C1CCC2(CC1)CC(C)(C)OC2=O` (stereo not shown) [compound 125] to `CNCCN(C)Cc1c[nH]nc1[C@H]1CC[C@]2(CCCCO2)CC1` [compound 127, methyl([2-[methyl([3-[(6s,9r)-1-oxaspiro[5.5]undecan-9-yl]-1H-pyrazol-4-yl]methyl)amino]ethyl])amine bistrifluoroacetic acid salt], the “PRMT1 RGG ICW EC30” value falls from 0.01488 µM to 0.00848 µM (1.8-fold).
